From patent US20240327426A1, “CRYSTALLINE FORMS OF CEFTIBUTEN” (QPEX BIOPHARMA, INC., priority 2021, published 2024)

What was measured:
Format in all cases: physicochemical
[1] = Moisture sorption-desorption (dynamic vapor sorption) analysis; conditions: for Crystalline form after moisture sorption-desorption analysis: 25° C., 5 to 95% RH adsorption and 95 to 5% RH desorption, 10% RH steps
Procedure: In one embodiment, moisture sorption-desorption analyses were taken after running the moisture sorption-desorption experiments. […] DVS analysis was carried out TA Instruments Q5000 Dynamic Vapor Sorption analyzer. The instrument was calibrated with standard weights and a sodium bromide standard for humidity. Samples were analyzed at 25° C. with a maximum equilibration time of 60 minutes in 10% relative humidity (RH) steps from 5 to 95% RH (adsorption cycle) and from 95 to 5% RH (desorption cycle).

[2] = Differential scanning calorimetry (DSC); conditions: 25° C. to 350° C. at 10° C. per minute, nitrogen purge
Procedure: DSC analysis was carried out using a TA Instruments Q2500 Discovery Series instrument. The instrument temperature calibration was performed using indium. The DSC cell was kept under a nitrogen purge of ˜50 mL per minute during the analysis. The sample was placed in a standard, crimped, aluminum pan and was heated from approximately 25° C. to 350° C. at a rate of 10° C. per minute.

[3] = Physical stability under relative humidity conditions, checked by X-ray powder diffraction
Excerpt: In some embodiments, Form A of the compound of Formula (I) may contain between two to three molar equivalents of water. Samples of Form A of the compound of Formula (I) were exposed to several relative humidity conditions ranging from 15% to 100% relative humidity for a period of 14 days, after which an X-ray powder diffraction was taken. In one embodiment, samples Form A of the compound of Formula (I) were exposed to several relative humidity conditions, including 15% relative humidity, 30% relative humidity, 45% relative humidity, 60% relative humidity, 75% relative humidity, and 100% relative humidity for a period of 14 days, after which an X-ray powder diffraction was taken. […] In some embodiments, Form B of the compound of Formula (I) may contain between two to three molar equivalents of water. […] X-ray diffraction was used to characterize the compound of Formula (I). A Rigaku Smart-Lab X-ray diffraction system was configured for reflection Bragg-Brentano geometry using a line source X-ray beam. The x-ray source was a Cu Long Fine Focus tube that may be operated at 40 kV and 44 mA. That source provides an incident beam profile at the sample that changes from a narrow line at high angles to a broad rectangle at low angles. […] Each sample was analyzed from 2 to 40° 2θ using a continuous scan of 6° 2θ per minute with an effective step size of 0.02° 2θ.

[4] = Form stability upon storage/shipping at ambient temperature and humidity
Procedure: (§1) In a reaction vessel are charged 400 mL of demineralized water, 37.0 g crude Ceftibuten and 190 mL acetone at 20-25° C. To this mixture is added with stirring a solution of 22.1 g NaHCO3 and 252.2 mL of demineralized water, keeping the pH at 6.5-6.9. The pH is then adjusted to 6.5-6.7 using 15% aqueous H2SO4. To the resulting solution are charged 13.8 g aluminum oxide, 5 g Norit charcoal, 1.5 g Na2S2O4 and 0.25 g disodium EDTA. The mixture is stirred for 20-25 min maintaining pH at 6.5-6.7 with 15% aqueous H2SO4, and is then filtered and washed with 200 mL of demineralized water. The filtrate is added over 20-30 min to a second vessel containing 630 mL water, 81 g malic acid and 175 g 15% aqueous H2SO4, maintaining the temperature at 20-25° C. After stirring for 50-70 min, the pH is adjusted to 2.9-3.1 over 20-25 min at 20-25° C. with a solution constituted by 30 g of K2CO3 and 70 g of demineralized water. This mixture is stirred for 2-2.5 hours, after which it is filtered and washed 5 times with demineralized water (250 mL each). The wet product is dried at 30° C. in a vacuum oven. Depending on the extent of drying, the resulting product may be Form A, Form B, or a mixture of Forms A and B. Three batches prepared by this procedure are shown in Table 1 below.

[5] = Karl Fischer moisture content of ceftibuten hydrate batches; conditions: batches prepared by procedure of Example 1, dried at 30° C. in a vacuum oven
Procedure: as §1
Karl Fischer analyses were carried out using a Mettler-Toledo C20 Coulometric KF titrator. The instrument was calibrated using a Hydranal water standard containing 1% water. The titrant was a Hydranal methanol solution.

Row | SMILES | Hygroscopicity [1] | Crystalline form after moisture sorption-desorption analysis [1] | Dehydration temperature during heating [2] | Crystalline form change / stability upon storage/shipping [4] | also measured
1 | Nc1nc(/C(=C/CC(=O)O)C(=O)N[C@@H]2C(=O)N3C(C(=O)O)=CCS[C@H]23)cs1 [Form A, ceftibuten] | moderately hygroscopic | convert to Form B | approximately 100 °C |  | Form conversion under extremely dry conditions ([3]; 0% relative humidity): may convert to Form B; X-ray powder diffraction form after relative humidity exposure ([3]; 15%, 30%, 45%, 60%, 75% and 100% relative humidity, 14 days): match for Form A
2 | Nc1nc(/C(=C/CC(=O)O)C(=O)N[C@@H]2C(=O)N3C(C(=O)O)=CCS[C@H]23)cs1 [Form B, ceftibuten] | moderately hygroscopic | remain stable and unchanged | approximately 100 °C | increased stability | 
3 | Nc1nc(/C(=C/CC(=O)O)C(=O)N[C@@H]2C(=O)N3C(C(=O)O)=CCS[C@H]23)cs1 [Batch 1, ceftibuten] |  |  |  | converted from a mixture to all Form B | Moisture Content [5]: 9.44%
4 | Nc1nc(/C(=C/CC(=O)O)C(=O)N[C@@H]2C(=O)N3C(C(=O)O)=CCS[C@H]23)cs1 [Batch 3, ceftibuten] |  |  |  |  | Moisture Content ([5]; listed as 3): 11.68%
5 | Nc1nc(/C(=C/CC(=O)O)C(=O)N[C@@H]2C(=O)N3C(C(=O)O)=CCS[C@H]23)cs1 [Batch 2, ceftibuten] |  |  |  |  | Moisture Content ([5]; listed as 2): 8.60%
